The text below walks through data of patent US6403617B1, “Diaminopyridine-containing thiourea inhibitors of herpes viruses” (American Home Products Corp., priority 1998, dated 2002).

One test deals with HSV-1. As to the kind of experiment: HSV Antiviral (ELISA) Assay. The test is classed as cell-based, herpes simplex virus type 1. The conditions noted are these: Human alphaherpesvirus 1; Vero cells, HSV-1, about 24 hours post-infection; read-out: IC50 (ug/ml) HSV. On the procedure: Vero cells (ATCC #CCL-81) are plated on 96-well tissue cultugre plates at 3.5×10^4 cells per 100 μl tissue culture DMEM (Dulbecco's modified Eagle media) supplemented with 2% fetal bovine serum (FBS) in each well. After overnight incubation @ 37° C. (in 5% CO2) and 30 minutes prior to infection with HSV-1 (multiplicity of infection equal to 0.006), cells are either untreated, or treated with test compound (multiple concentrations) or reference standard drug control. After approximately 24 hours post-infection incubation @ 37° C. (in 5% CO2), cells are fixed for ELISA assay. The primary antibody is murine anti-HSV glycoprotein D monoclonal primary antibody and the secondary antibody is goat anti-mouse IgG linked to β-galactosidase. Thus the extent of viral replication is determined by assessing β-galactosidase activity by quantifying the generation of the 4-methyl umbelliferone fluorescent cleavage product after addition of the methyl umbelliferyl-β-D-galactoside (Sigma #M1633) substrate on a microfluorimeter (365 nm for excitation and 450 nm for emission). Antiviral activity (IC50) of the test compound is determined by comparing the flourescence obtained in absence of compound to that obtained in the presence of compound.

Another test concerns HCMV wild-type. As to the kind of experiment: HCMV yield assay. The test is classed as cell-based, Human Cytomegalovirus. The conditions noted are these: human foreskin fibroblasts, reduction of virus yield by 50%; for IC50: Human betaherpesvirus 5, Fibroblast, read-out: IC50 (ug/ml) HCMV. On the procedure: Yield assay. Monolayer cultures of human foreskin fibroblasts are infected with HCMV wild-type, typically at a multiplicity of infection equal to 0.2, in the presence of inhibitor compound (varying concentrations). At three days post-infection, total virus produced in these cultures (i.e. virus yield) is assessed by harvesting and titering the virus in 12-well plates of cultured human foreskin fibroblasts (done in the absence of inhibitor). Plaques are quantified at 2 weeks post-infection. An inhibitor of HCMV is identified by the reduction in titer of virus yield in the presence, compared to the titer in the absence of compound. In this assay, the relative anti-HCMV activity of an inhibitor is typically determined by calculating the IC50 or IC90 value, that is, the amount of compound required to reduce the virus yield by 50% or 90%, respectively. Table I describes IC50 data for compounds tested against HCMV.

In the next test the test system is VZV strain Ellen. Briefly: VZV Antiviral (ELISA) Assay. The test is classed as cell-based, varicella-zoster virus. The conditions noted are these: human foreskin fibroblast cells, three days; for inhibition at 10 µg/mL / IC50: Human alphaherpesvirus 3, 72 h; for inhibition at 10 µg/mL: read-out: % inhibition 10 ug/ml VZV, 10 ug/ml; for IC50: read-out: IC50 (ug/ml) VZV. The procedure: For the generation of stock VZV to be used in the assay, VZV strain Ellen (ATCC #VR-1367) is used to infect human foreskin fibroblast (HFF) cells at low multiplicity (less than 0.1) and incubated overnight at 37° C. in 5% CO2. After the overnight incubation, the mixture of uninfected and VZV-infected HFF infected cells are then harvested and added to each well of 96-well plates (3.5×10^4 cells in 100 μl DMEM supplemented with 2% FBS) which contain test compound or the reference standard drug control (in 100 μl DMEM supplemented with 2% FBS per well). These cells are incubated for three days at 37° C. in 5% CO2, then fixed for ELISA assay. The primary antibody is murine anti-VZV glycoprotein II monoclonal antibody (Applied Biosystems, Inc. #13-145-100) and the secondary antibody is goat anti-mouse IgG linked to β-galactosidase. Thus the extent of viral replication is determined by assessing β-galactosidase activity by quantifying the generation of the 4-methyl umbelliferone fluorescent cleavage product after addition of the methyl umbelliferyl-β-D-galactoside (Sigma #M1633) substrate on a microfluorimeter (365 nm for excitation and 450 nm for emission). Antiviral activity (IC50) of the test compound is determined by comparing the flourescence obtained in absence of compound to that obtained in the presence of compound.
A general note: ELISA stands for enzyme-linked immunosorbent assay.

Values after ≈ are worked out from the molar mass of the structure shown. Where only a bound is given, the exact number is not on record here.

As to `COc1cc(OC)c(NC(=S)Nc2ccc(NC(=O)c3ccccc3C)nc2)cc1Cl` [Example 283, N-[5-[[[(5-Chloro-2,4-dimethoxyphenyl)amino]thioxomethyl]amino]-2-pyridinyl]-2-methylbenzamide], the IC50 in the test with HSV-1 is 0.6 µg/mL (≈ 1.31 µM); in the test with HCMV wild-type, 7 µg/mL (≈ 15.3 µM); with VZV strain Ellen, greater than 10 µg/mL. Moreover, in the test on VZV strain Ellen, the inhibition at 10 µg/mL came out at 17%.

Regarding `COc1cc(OC)c(NC(=S)Nc2cccnc2NC(=O)c2ccco2)cc1Cl` [Example 284, Furan-2-carboxylic acid {3-[3-(5-chloro-2,4-dimethoxy-phenyl)-thioureido]-pyridin-2-yl}-amide], the IC50 was 3 µg/mL (≈ 6.93 µM) in the test on HSV-1, 0.4 µg/mL (≈ 0.924 µM) with HCMV wild-type and greater than 15 µg/mL in the test with VZV strain Ellen. The inhibition at 10 µg/mL in the test on VZV strain Ellen is 100%.

In the case of `COc1cc(OC)c(NC(=S)Nc2ccc(NC(=O)c3ccccc3F)nc2)cc1Cl` [Example 289, N-{5-[3-(5-Chloro-2,4-dimethoxy-phenyl)-thioureido]-pyridin-2-yl}-2-fluoro-benzamide], the IC50 was 0.6 µg/mL (≈ 1.3 µM) in the test on HSV-1, greater than 10 µg/mL in the test with HCMV wild-type and greater than 10 µg/mL in the test on VZV strain Ellen. Also, the inhibition at 10 µg/mL in the test with VZV strain Ellen was determined as 30%.

For `COc1cc(OC)c(NC(=S)Nc2cccnc2NC(=O)c2csnn2)cc1Cl` [Example 498, [1,2,3]Thiadiazole-4-carboxylic acid {3-[3-(5-chloro-2,4-dimethoxy-phenyl)-thioureido]-pyridin-2-yl}-amide], the IC50 in the test on HSV-1 was 6 µg/mL (≈ 13.3 µM); with HCMV wild-type, 0.14 µg/mL (≈ 0.31 µM); with VZV strain Ellen, greater than 10 µg/mL. The inhibition at 10 µg/mL in the test with VZV strain Ellen worked out at 14%.

Consider `COc1cc(OC)c(NC(=S)Nc2ccc(NC(=O)c3ccccn3)nc2)cc1Cl` [Example 499, Pyridine-2-carboxylic acid {5-[3-(5-chloro-2,4-dimethoxy-phenyl)-thioureido]-pyridin-2-yl}-amide], for which the IC50 with HSV-1 was 5 µg/mL (≈ 11.3 µM); in the test with HCMV wild-type, 3 µg/mL (≈ 6.76 µM); in the test with VZV strain Ellen, greater than 10 µg/mL. In the test on VZV strain Ellen, the inhibition at 10 µg/mL turned out to be 25%.

As to `COc1cc(OC)c(NC(=S)Nc2ccc(NC(=O)c3ccccc3F)cn2)cc1Cl` [Example 507, N-{6-[3-(5-Chloro-2,4-dimethoxy-phenyl)-thioureido]-pyridin-3-yl}-2-fluoro-benzamide], the results for the IC50 with HSV-1, in the test on HCMV wild-type and in the test on VZV strain Ellen were 10 µg/mL (≈ 21.7 µM), 1.2 µg/mL (≈ 2.6 µM) and 4 µg/mL (≈ 8.68 µM), respectively. Also, the inhibition at 10 µg/mL with VZV strain Ellen came to 90%.

With `O=C(Nc1ccc(NC(=S)NCc2cc(C(F)(F)F)cc(C(F)(F)F)c2)cn1)c1csnn1` [Example 815, N-{5-[({[3,5-bis(trifluoromethyl)benzyl]amino}carbothioyl)amino]-2-pyridinyl}-1,2,3-thiadiazole-4-carboxamide], the IC50 was 0.0024 µg/mL (≈ 0.00474 µM) with HCMV wild-type and greater than 7.5 µg/mL in the test with VZV strain Ellen.

With `C[C@H](NC(=S)Nc1ccc(NC(=O)c2csnn2)nc1)c1cc(C(F)(F)F)cc(C(F)(F)F)c1` [Example 816, N-(5-{[({(1S)-1-[3,5-bis(trifluoromethyl)phenyl]ethyl}amino)carbothioyl]amino}-2-pyridinyl)-1,2,3-thiadiazole-4-carboxamide], the IC50 with HCMV wild-type was 0.0015 µg/mL (≈ 0.00288 µM); with VZV strain Ellen it was greater than 7.5 µg/mL.

`C[C@H](NC(=S)Nc1ccc(NC(=O)c2cscn2)nc1)c1cc(C(F)(F)F)cc(C(F)(F)F)c1` [Example 817, N-(5-{[({(1S)-1-[3,5-bis(trifluoromethyl)phenyl]ethyl}amino)carbothioyl]amino}-2-pyridinyl)-1,3-thiazole-4-carboxamide]: the figures for the IC50 with HCMV wild-type and in the test with VZV strain Ellen were 0.001 µg/mL (≈ 0.00192 µM) and greater than 7.5 µg/mL, respectively.

Regarding `CC(NC(=S)Nc1ccc(NC(=O)c2cscn2)nc1)c1cc(C(F)(F)F)ccc1F` (centres unmarked) [Example 818, N-(5-{[({1-[2-fluoro-5-(trifluoromethyl)phenyl]ethyl}amino)carbothioyl]amino}-2-pyridinyl)-1,3-thiazole-4-carboxamide], the IC50 in the test with HCMV wild-type is 0.0022 µg/mL (≈ 0.00469 µM); in the test with VZV strain Ellen, greater than 7.5 µg/mL.

In the case of `CC(NC(=S)Nc1ccc(NC(=O)c2cscn2)nc1)c1ccc(C(F)(F)F)cc1F` (centres unmarked) [Example 819, N-(5-{[({1-[2-fluoro-4-(trifluoromethyl)phenyl]ethyl}amino)carbothioyl]amino}-2-pyridinyl)-1,3-thiazole-4-carboxamide], the IC50 in the test with HCMV wild-type is 0.0022 µg/mL (≈ 0.00469 µM); in the test with VZV strain Ellen, greater than 7.5 µg/mL.

As for `CC(NC(=S)Nc1ccc(NC(=O)c2cscn2)nc1)c1cc(F)cc(C(F)(F)F)c1` (centres unmarked) [Example 820, N-(5-{[({1-[3-fluoro-5-(trifluoromethyl)phenyl]ethyl}amino)carbothioyl]amino}-2-pyridinyl)-1,3-thiazole-4-carboxamide], the IC50 is 0.0013 µg/mL (≈ 0.00277 µM) in the test with HCMV wild-type and 3.4 µg/mL (≈ 7.24 µM) with VZV strain Ellen.

Consider `C[C@H](NC(=O)Nc1ccc(NC(=O)c2cscn2)nc1)c1cc(C(F)(F)F)cc(C(F)(F)F)c1` [Example 821, N-(5-{[({(1S)-1-[3,5-bis(trifluoromethyl)phenyl]ethyl}amino)carbonyl]amino}-2-pyridinyl)-1,3-thiazole-4-carboxamide], for which the IC50 in the test with HCMV wild-type was 0.014 µg/mL (≈ 0.0278 µM); in the test with VZV strain Ellen it was greater than 7.5 µg/mL.

As to `CC(NC(=S)Nc1ccc(NC(=O)c2cscn2)nc1)c1cccc(Br)c1` (centres unmarked) [Example 822, N-{5-[({[1-(3-bromophenyl)ethyl]amino}carbothioyl)amino]-2-pyridinyl}-1,3-thiazole-4-carboxamide], the IC50 in the test on HCMV wild-type was 0.05 µg/mL (≈ 0.108 µM); in the test on VZV strain Ellen, greater than 7.5 µg/mL.

Regarding `CC(NC(=S)Nc1ccc(NC(=O)c2cscn2)nc1)c1ccccc1Br` (centres unmarked) [Example 823, N-{5-[({[1-(2-bromophenyl)ethyl]amino}carbothioyl)amino]-2-pyridinyl}-1,3-thiazole-4-carboxamide], the IC50 with HCMV wild-type is 0.05 µg/mL (≈ 0.108 µM); in the test with VZV strain Ellen, greater than 7.5 µg/mL.

In the case of `CC(NC(=S)Nc1ccc(NC(=O)c2cscn2)nc1)c1cccc(C(F)(F)F)c1` (centres unmarked) [Example 824, N-(5-{[({1-[3-(trifluoromethyl)phenyl]ethyl}amino)carbothioyl]amino}-2-pyridinyl)-1,3-thiazole-4-carboxamide], the IC50 stood at 0.004 µg/mL (≈ 0.00886 µM) in the test with HCMV wild-type and 3.2 µg/mL (≈ 7.09 µM) in the test on VZV strain Ellen.

Take `CC(NC(=S)Nc1ccc(NC(=O)c2cscn2)nc1)c1ccc(Cl)c(C(F)(F)F)c1` (centres unmarked) [Example 825, N-(5-{[({1-[4-chloro-3-(trifluoromethyl)phenyl]ethyl}amino)carbothioyl]amino}-2-pyridinyl)-1,3-thiazole-4-carboxamide]: the IC50 turned out to be 0.003 µg/mL (≈ 0.00617 µM) in the test on HCMV wild-type and 6.12 µg/mL (≈ 12.6 µM) in the test on VZV strain Ellen.

On to `CC(NC(=S)Nc1ccc(NC(=O)c2cscn2)nc1)c1ccc(Cl)c(F)c1` (centres unmarked) [Example 826, N-{5-[({[1-(4-chloro-3-fluorophenyl)ethyl]amino}carbothioyl)amino]-2-pyridinyl}-1,3-thiazole-4-carboxamide], for which the values for the IC50 in the test with HCMV wild-type and in the test with VZV strain Ellen were 0.02 µg/mL (≈ 0.0459 µM) and 0.86 µg/mL (≈ 1.97 µM), respectively.

For `CC(NC(=S)Nc1ccc(NC(=O)c2cscn2)nc1)c1ccc(Cl)cc1F` (centres unmarked) [Example 827, N-{5-[({[1-(4-chloro-2-fluorophenyl)ethyl]amino}carbothioyl)amino]-2-pyridinyl}-1,3-thiazole-4-carboxamide], in the test with HCMV wild-type, the IC50 came out at 0.026 µg/mL (≈ 0.0596 µM).

For the compound “N-(6-{[({(1S)-1-[3,5-bis(trifluoromethyl)phenyl]ethyl}amino)carbothioyl]amino}-3-pyridinyl)-1,2,3-thiadiazole-4-carboxamide [Example 829]”, the “IC50 (ug/ml) HCMV” value in the test on HCMV wild-type was 0.08 µg/mL. Further, in the test on VZV strain Ellen, the “IC50 (ug/ml) VZV” value is greater than 7.5 µg/mL.

On to “N-{6-[({[1-(4-fluorophenyl)ethyl]amino}carbothioyl)amino]-3-pyridinyl}-1,2,3-thiadiazole-4-carboxamide [Example 828]”, for which the “IC50 (ug/ml) HCMV” value in the test on HCMV wild-type was found to be 0.45 µg/mL. The “IC50 (ug/ml) VZV” value in the test on VZV strain Ellen is greater than 7.5 µg/mL.
